Data: the RepoRT retention time repository (doi:10.1016/j.jhazmat.2019.121712)

assay: Thermo Scientific Acclaim RSLC 120 C18, 100 × 2.1 mm, 2.2 µm, 30 °C; A: 90% water + 10% methanol + 0.01% formic acid + 5 mM ammonium formate; B: methanol + 0.01% formic acid + 5 mM ammonium formate; gradient (min/%B) 0.1/1 3/39 14/99.9 16/99.9; conditions: stereoisomer not certain

SMILES	LC retention time [min]
CCOC(=O)C1=NOC(c2ccccc2)(c2ccccc2)C1	10.7
CNCC12CCC(c3ccccc31)c1ccccc12	6.52
CNC(=O)ON=C(C)C(C)SC (centres undefined)	6.07
Cc1nnc(-c2ccccc2)c(=O)n1N	5.24
COC(=O)C(NC(=O)c1cn(CC2CCCCC2)c2ccccc12)C(C)(C)C (centres undefined)	12.4
CC(=O)Nc1ccc(S(=O)(=O)Nc2nccs2)cc1	4.24
CNC(=O)Oc1cc(C)c(C)c(C)c1	8.1
CC(=O)NCCCS(=O)(=O)O	1.4
c1coc(-c2nc3ccccc3[nH]2)c1	6.48
CNC(=O)ON=C(C)C(C)S(C)(=O)=O (centres undefined)	3.66
COC(=O)CCc1ccc(OCC(O)CNC(C)C)cc1 (centres undefined)	5.18
CCCCc1oc2ccc(NS(C)(=O)=O)cc2c1C(=O)c1ccc(OCCCN(CCCC)CCCC)cc1	10.1
CCCC1C(=O)N2C(N(C)C)=Nc3ccc(C)cc3N2C1=O (centres undefined)	6.54
CN1CCN2c3ncc(O)cc3Cc3ccccc3C2C1 (centres undefined)	4.54
O=C(O)c1ccccc1C(=O)Nc1cccc2ccccc12	6.75
CC(C(=O)c1ccccc1)N(C)C (centres undefined)	3.64
NCC(O)COc1ccccc1C(=O)CCc1ccccc1.O=C(O)C(=O)O (centres undefined)	7.09
CN1CCCC1c1cccnc1 (centres undefined)	2.41
NC1CC1c1ccccc1 (centres undefined)	4.27
c1ccc2scnc2c1	6.88
CNC(C)C1CCC(N)C(OC2C(N)CC(N)C(OC3OCC(C)(O)C(NC)C3O)C2O)O1 (centres undefined)	11.6
CC(C)C(O)(C(=O)OCC1=CCN2CCC(O)C12)C(C)O (centres undefined)	3.65
CCC(=C(c1ccccc1)c1ccc(OCCN(C)C)cc1)c1ccccc1	11

SMILES	LC retention time [min]
CN1CCC(=C2c3ccccc3C=Cc3ccccc32)CC1	7.89
CCOP(=S)(OCC)Oc1ccc(S(C)=O)cc1 (centres undefined)	8.27
NC(=O)c1ccccc1Oc1ccccc1	7.79
CCC(C)OC(=O)N1CCCCC1CCO (centres undefined)	8.83
CCN(CC)C(=O)N1CCN(C)CC1	3.16
CCCc1nc(C)c2c(=O)[nH]c(-c3cc(C(=O)CN4CCN(CC)CC4)ccc3OCC)nn12	7.16
Cc1ccc2n[nH]nc2c1	5.83
O=c1[nH]c2ccccc2n1CCCN1CCN(C(c2ccccc2)c2ccccc2)CC1	8.42
CC(C)N(CCc1c[nH]c2cccc(O)c12)C(C)C	4.34
c1ccc(C2(N3CCCCC3)CCCCC2)cc1	5.74
CC(C)OC(=O)c1cc(C(=O)OC(C)C)cc([N+](=O)[O-])c1	12
CN(C)C(=O)Oc1cc(OC(=O)N(C)C)cc(C(O)CNC(C)(C)C)c1 (centres undefined)	5.16
CCNC(=O)NC(=O)C(C#N)=NOC	5.6
CCC(=O)C1(c2cccc(O)c2)CCN(C)CC1	4.26
C=C(c1ccc(C(=O)O)cc1)c1cc2c(cc1C)C(C)(C)CCC2(C)C	14.1
CC1(C)OC2COC3(COS(N)(=O)=O)OC(C)(C)OC3C2O1 (centres undefined)	6.08
CCCCCn1nc(C(=O)NC(C(N)=O)C(C)C)c2ccccc21 (centres undefined)	10.5
CCNC(C)C(O)c1ccc(O)c(O)c1 (centres undefined)	1.99
CCCOc1ccc(S(=O)(=O)NCCC2CCCN2C)cc1-c1nc2c(CCC)nn(C)c2c(=O)[nH]1 (centres undefined)	7.83
NC(=O)N1c2ccccc2C=Cc2ccccc21	7.36
CCCOP(=S)(OCCC)OP(=S)(OCCC)OCCC	12.9
COc1ccc2c3c1OC1CC(O)C=CC31CCN(C)C2 (centres undefined)	2.99
CNC(=C[N+](=O)[O-])NCCSCc1csc(CN(C)C)n1	2.96

SMILES	LC retention time [min]
OCCOCCN1CCN(C2=Nc3ccccc3Sc3ccccc32)CC1	7.26
CC1(C)SC2C(NC(=O)C(N)c3ccccc3)C(=O)N2C1C(=O)O (centres undefined)	4.21
CC(C)N(CCc1c[nH]c2ccccc12)C(C)C	4.87
CN(CCOc1ccc(CC2SC(=O)NC2=O)cc1)c1ccccn1 (centres undefined)	6.98
CN1C(=O)C(O)CC1c1cccnc1 (centres undefined)	3.13
C1=CCC(c2cccnc2)NC1 (centres undefined)	2.68
Cc1cn(C2CC(N=[N+]=[N-])C(CO)O2)c(=O)[nH]c1=O (centres undefined)	4.56
CCCCCn1cc(C(=O)c2cccc3ccccc23)c2c(O)cccc21	12.5
O=C1NCC(=O)N2C1Cc1c([nH]c3ccccc13)C2c1ccc2c(c1)OCO2 (centres undefined)	7.99
CNCCCC1c2ccccc2C=Cc2ccccc21	7.99
COc1cc(OC)nc(NC(=O)NS(=O)(=O)c2cc(NC=O)ccc2C(=O)N(C)C)n1	7.54
CCOP(=O)(NC(C)C)Oc1ccc(S(C)(=O)=O)c(C)c1 (centres undefined)	7.21
CC=C1N(C)C(C)CC1(c1ccccc1)c1ccccc1 (centres undefined)	6.38
CC12CCC3C4CCC(=O)C=C4CCC3C1CCC2O (centres undefined)	9.37
CNCCC(Oc1ccccc1C)c1ccccc1 (centres undefined)	7.63
CNCCN1C(=O)C(OC(C)=O)C(c2ccc(OC)cc2)Sc2ccccc21 (centres undefined)	7.21
CC12CCC3C(CCC4=CC(=O)CCC43C)C1CCC2=O (centres undefined)	9.36
CCCCC(CC)COC(=O)c1ccccc1C(=O)OCC(CC)CCCC (centres undefined)	15
CN(C)CCc1c[nH]c2ccccc12	3.94
COC=C(C(=O)O)c1ccccc1Oc1cc(Oc2ccccc2C#N)ncn1	8.18
CC(CCc1ccccc1)NCC(O)c1ccc(O)c(C(N)=O)c1 (centres undefined)	5.74
CCCCN(CC)C(=O)SCCC	11.5
c1ccc2c(c1)Cc1ccccc1N1CCNCC21 (centres undefined)	6.86

SMILES	LC retention time [min]
CCCN1CCCCC1C(=O)Nc1c(C)cccc1C (centres undefined)	5.39
CCCCCn1cc(C(=O)c2ccc(C)c3ccccc23)c2ccccc21	12.9
CNC(=O)Oc1cc(C)cc(C)c1	7.78
CNC(=O)Oc1cc(C)c(N(C)C)c(C)c1	9.3
CCCC(NC)C(=O)c1ccc2c(c1)OCO2 (centres undefined)	4.99
O=C1C(CCS(=O)c2ccccc2)C(=O)N(c2ccccc2)N1c1ccccc1 (centres undefined)	7.94
CCOP(=S)(OCC)Oc1cc(-c2ccccc2)on1	11.3
Cc1cccc2n[nH]nc12	5.83
CCCC(C(=O)c1ccccc1)N1CCCC1 (centres undefined)	5.08
CC(O)CCn1cc(C(=O)c2cccc3ccccc23)c2ccccc21 (centres undefined)	9.91
CC=C1CC(C)C(C)(O)C(=O)OCC2=CCN3CCC(OC1=O)C23 (centres undefined)	4.62
CCCCCCC(C)(C)c1ccc(C2CC(O)CCC2CCCO)c(O)c1 (centres undefined)	12
CC(C)CC(CN)CC(=O)O (centres undefined)	3.88
CCOP(=O)(Sc1ccccc1)Sc1ccccc1	10.8
CNC(=O)ON=C(CSC)C(C)(C)C	7.8
COP(N)(=S)Oc1ccccc1C(=O)OC(C)C (centres undefined)	8.32
COc1ccc(CCN(C)CCCC(C#N)(c2cc(OC)c(OC)c(OC)c2)C(C)C)cc1OC (centres undefined)	7.19
CCc1ccc(C(=O)NN(C(=O)c2cc(C)cc(C)c2)C(C)(C)C)cc1	10.4
CCC(c1cccc(O)c1)C(C)CN(C)C (centres undefined)	5.01
CCCc1nn(C)c2c(=O)[nH]c(-c3cc(C(=O)CN4CC(C)NC(C)C4)ccc3OCC)nc12 (centres undefined)	7.5
COc1ccc2[nH]c(C)c(CCN(C)C)c2c1	4.19
CCC1OC(=O)C(C)C(OC2CC(C)(OC)C(O)C(C)O2)C(C)C(OC2OC(C)CC(N(C)C)C2O)C(C)(O)CC(C)CN(C)C(C)C(O)C1(C)O (centres undefined)	5.98
CCOS(=O)(=O)O	1.58

SMILES	LC retention time [min]
Cc1ccc(C(CCN(C)C)c2ccccc2)cc1 (centres undefined)	7.47
CNC(=O)CSP(=S)(OC)OC	5.23
CC(C)=CC1C(C(=O)OCN2C(=O)C3=C(CCCC3)C2=O)C1(C)C (centres undefined)	12.2
O=[N+]([O-])c1cncn1CCN1CCOCC1	4.09
CC1COC(=O)c2cc3c(cc21)C(C)(C)C(C)C3(C)C (centres undefined)	12
CCC(CO)NCCNC(CC)CO (centres undefined)	1.93
O=C(c1cccc2ccccc12)c1cn(CCCCO)c2ccccc12	9.56
CCCCNc1cc(C(=O)O)cc(S(N)(=O)=O)c1Oc1ccccc1	7.83
CCC(C)(CC)c1cc(NC(=O)c2c(OC)cccc2OC)on1	9.42
CCCCc1c(C)nc(NCC)nc1OS(=O)(=O)N(C)C	10.5
CCC(C(=O)c1ccc2c(c1)OCO2)N1CCCC1 (centres undefined)	4.49
CNCCC(Oc1cccc2ccccc12)c1cccs1 (centres undefined)	8.11
CCCOc1ccc(S(=O)(=O)N2CCN(CC)CC2)cc1-c1nc(=S)c2c([nH]1)c(CCC)nn2C	10.5
CCOP(=S)(OCC)SCCSCC	11.5
Nc1ccc(S(N)(=O)=O)cc1	2.23
CN(C)C(=O)NC1CCCCCCC1	8.47
CCCc1cc(OC)c(CCN)cc1OC	7.46
CCCCCn1nc(C(=O)NC(C)(C)c2ccccc2)c2ccccc21	12.5
CCOP(=S)(OCC)SCS(=O)C(C)(C)C (centres undefined)	9
CC(CCc1ccc(O)cc1)NCCc1ccc(O)c(O)c1 (centres undefined)	4.21
COC1CC(CC2CCC(C)C(C(C)C(=O)O)O2)OC2(OC(C)(C3CCC(C)(C4OC(C5OC(O)(CO)C(C)CC5C)CC4C)O3)CC2C)C1C (centres undefined)	13.9
CCCc1nn(C)c2c(=O)[nH]c(-c3cc(C(=O)CN4CCN(C)CC4)ccc3OCC)nc12	6.99
